Some test systems named below: SK-MEL-2 melanoma; MDA-MB-435; UACC-62 melanoma; HCT-15 colon; OVCAR-3 ovarian; HCT-116 colon; U251 CNS; IGROV1 ovarian; UACC-257 melanoma; HL-60(TB) leukemia.
Assay in all cases: inhibition of tumour cell growth, NCI panel, 48 h

The structures appear in SMILES notation. Several values for one entry are separate records, joined by “and”; a condition that tells them apart may be missing. Identical values can stand only once.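 How tested: cells in 96-well plates exposed to compound for 48 hours at five concentrations. GI50 is the concentration that inhibits growth by half. TGI is the concentration that stops growth completely.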

As for `CC(CCC/C=C/CCCN(C)C(=N)N)CC(C)C1OC(=O)C(C)C(O)/C=C/C(C)C(O)C(C)C(O)C(C)C(O)CCCC(O)CC2(O)OC(CC(OC(=O)CC(=O)O)CC(O)CC(O)C(C)C(O)/C=C/C=C/C1C)CC(O)C2O` (stereo not given), the GI50 in the experiment on SK-MEL-2 melanoma was 7.22 µM and 10.2 µg/mL; in the experiment on MDA-MB-435, 1.9 µM and 2.45 µg/mL; with UACC-62 melanoma it was 2.13 µM and 8.05 µg/mL; in the experiment on HCT-15 colon it was 2.35 µM and 11.9 µg/mL; with OVCAR-3 ovarian, 1.92 µM and 5.68 µg/mL; in the experiment with HCT-116 colon, 2.52 µM and 9.15 µg/mL. For the same compound, the GI50 in the experiment with U251 CNS was 3.37 µM and 3.3 µg/mL; with IGROV1 ovarian, 2.51 µM and 3.12 µg/mL; in the experiment on UACC-257 melanoma, 2.16 µM and 1.98 µg/mL; in the experiment with HL-60(TB) leukemia, 6.5 µg/mL. Besides, the TGI is 23 µM and 20.5 µg/mL in the experiment with SK-MEL-2 melanoma; 4.39 µM and 9.24 µg/mL with MDA-MB-435; 4.52 µM and 19.1 µg/mL in the experiment on UACC-62 melanoma; 5.33 µM and 28.9 µg/mL in the experiment with HCT-15 colon; 3.42 µM and 15.1 µg/mL with OVCAR-3 ovarian; 6.13 µM and 24.4 µg/mL in the experiment with HCT-116 colon. For the same compound, the TGI in the experiment with U251 CNS is 11.6 µM and 14.9 µg/mL; in the experiment with IGROV1 ovarian, 5.01 µM and 12.4 µg/mL; with UACC-257 melanoma it was 4.29 µM and 6.29 µg/mL; in the experiment with HL-60(TB) leukemia it was 21.2 µg/mL.

Turning to `COc1ccc(/C=C2\CC(C)CC3C2=NN(C(C)=O)C3c2ccc(OC)c(OC)c2)cc1OC` (stereo not given), the GI50 in the experiment with SK-MEL-2 melanoma is 15400 nM; with MDA-MB-435, 18600 nM; with UACC-62 melanoma it was 16200 nM; in the experiment with HCT-15 colon, 15400 nM; in the experiment on OVCAR-3 ovarian, 18000 nM; with HCT-116 colon, 13700 nM. In addition, the GI50 in the experiment with U251 CNS is 14300 nM; in the experiment with IGROV1 ovarian, 20200 nM; in the experiment on UACC-257 melanoma it was 18100 nM; in the experiment with HL-60(TB) leukemia, 12600 nM. In addition, the TGI with SK-MEL-2 melanoma came to 30 µM; in the experiment with MDA-MB-435 it was 39.4 µM; in the experiment with UACC-62 melanoma, 33.3 µM; in the experiment on HCT-15 colon, 32.8 µM; with OVCAR-3 ovarian it was 46 µM; in the experiment on HCT-116 colon, 26.6 µM. Further, the TGI in the experiment on U251 CNS amounted to 28 µM; in the experiment on IGROV1 ovarian, 50.6 µM; with UACC-257 melanoma, 33.9 µM; with HL-60(TB) leukemia, 52100 nM.

With `Nc1cc2[nH]c(=O)c3cc(Cl)ccc3c2cc1Cl`, the TGI with SK-MEL-2 melanoma is over 100 µM; in the experiment with MDA-MB-435 it was 52.1 µM; in the experiment on UACC-62 melanoma it was over 100 µM; in the experiment on HCT-15 colon, over 100 µM; in the experiment on OVCAR-3 ovarian, 29.4 µM; in the experiment with HCT-116 colon, 68.8 µM. Besides, the TGI is 26.1 µM in the experiment on U251 CNS, 23.5 µM in the experiment on IGROV1 ovarian, 53.4 µM in the experiment on UACC-257 melanoma and over 100000 nM in the experiment with HL-60(TB) leukemia.

With `O=C(/C=C/CN1CCCCC1)Nc1cc2c(Nc3ccc(F)c(Cl)c3F)ncnc2cc1OCCOC(F)F`, the GI50 in the experiment on SK-MEL-2 melanoma is 1850 nM; in the experiment on MDA-MB-435 it was 1350 nM; in the experiment on UACC-62 melanoma, 1630 nM; in the experiment on HCT-15 colon it was 633 nM; with OVCAR-3 ovarian, 284 nM; with HCT-116 colon it was 1310 nM. The GI50 with U251 CNS was 1870 nM; in the experiment with IGROV1 ovarian it was under 18.2 nM; with UACC-257 melanoma, 1740 nM; in the experiment with HL-60(TB) leukemia, 1400 nM. The TGI in the experiment on SK-MEL-2 melanoma came to 4.7 µM; in the experiment on MDA-MB-435 it was 5.81 µM; in the experiment with UACC-62 melanoma, 5.11 µM; with HCT-15 colon, 3.86 µM; with OVCAR-3 ovarian it was 2.55 µM; in the experiment with HCT-116 colon, 8.43 µM. Also, the TGI was 9.25 µM in the experiment on U251 CNS, 0.815 µM in the experiment with IGROV1 ovarian, 5.64 µM with UACC-257 melanoma and 5680 nM in the experiment on HL-60(TB) leukemia.

Consider `C[CH2][Ge]1([CH2]C)[CH2]CC2(CCN(CCCN(C)C)C2)C[CH2]1`, for which the GI50 in the experiment on SK-MEL-2 melanoma was 616 nM; with MDA-MB-435 it was 289 nM; in the experiment with UACC-62 melanoma, 875 nM and 1570 nM; in the experiment with HCT-15 colon it was 1070 nM and 1510 nM; in the experiment on OVCAR-3 ovarian, 2150 nM and 2810 nM; in the experiment with HCT-116 colon it was 1450 nM. The GI50 with U251 CNS was 1730 nM and 5490 nM; in the experiment with IGROV1 ovarian it was 1750 nM and 4540 nM; with UACC-257 melanoma, 1310 nM; with HL-60(TB) leukemia it was 312 nM and 1210 nM. Moreover, the TGI is 1.32 µM with SK-MEL-2 melanoma; 0.843 µM in the experiment with MDA-MB-435; 1.78 µM and 3.19 µM with UACC-62 melanoma; 2.74 µM and 2.65 µM with HCT-15 colon; 4.99 µM and 6.87 µM with OVCAR-3 ovarian; 2.79 µM and 1 µM in the experiment with HCT-116 colon. The TGI in the experiment on U251 CNS is 3.69 µM and 9.77 µM; with IGROV1 ovarian, 3.42 µM and 10.8 µM; in the experiment on UACC-257 melanoma, 2.64 µM; in the experiment on HL-60(TB) leukemia, 1610 nM and 1790 nM.

With `CCOC(=O)C(Cc1ccc(N(CCCl)CCCl)cc1)NC(=O)C(CC(C)C)NC(C)=O` (stereo not given), the GI50 with SK-MEL-2 melanoma was 2610 nM; in the experiment with MDA-MB-435, 1430 nM; in the experiment on UACC-62 melanoma it was 659 nM; with HCT-15 colon, 2220 nM; in the experiment on OVCAR-3 ovarian it was 332 nM; with HCT-116 colon, 1060 nM. For the same compound, the GI50 is 1390 nM in the experiment on U251 CNS, 1520 nM with IGROV1 ovarian, 1690 nM in the experiment on UACC-257 melanoma and 304 nM in the experiment on HL-60(TB) leukemia. Moreover, the TGI in the experiment with SK-MEL-2 melanoma was 5.13 µM; in the experiment with MDA-MB-435 it was 3.25 µM; with UACC-62 melanoma, 2.19 µM; in the experiment on HCT-15 colon it was over 27.8 µM; with OVCAR-3 ovarian, 1.4 µM; with HCT-116 colon, 3.56 µM. In addition, the TGI in the experiment on U251 CNS was determined as 8.13 µM; in the experiment on IGROV1 ovarian, 4.72 µM; in the experiment with UACC-257 melanoma, 5.66 µM; in the experiment on HL-60(TB) leukemia, 1900 nM.

Take `COc1cc2c(cc1Nc1nc(Nc3ccsc3C(N)=O)c3cc[nH]c3n1)N(C(=O)CN(C)C)CCC2`: the GI50 is 726 nM with SK-MEL-2 melanoma; 49.9 nM with MDA-MB-435; 889 nM with UACC-62 melanoma; 1870 nM with HCT-15 colon; 618 nM with OVCAR-3 ovarian; 458 nM in the experiment on HCT-116 colon. The GI50 was 1140 nM with U251 CNS, 1790 nM in the experiment with IGROV1 ovarian, 55.8 nM with UACC-257 melanoma and 5.52 nM with HL-60(TB) leukemia. Moreover, the TGI is 4.58 µM in the experiment on SK-MEL-2 melanoma; 0.489 µM in the experiment on MDA-MB-435; 4.2 µM in the experiment with UACC-62 melanoma; over 25 µM in the experiment on HCT-15 colon; 2.13 µM with OVCAR-3 ovarian; 3.79 µM with HCT-116 colon. Besides, the TGI in the experiment on U251 CNS was determined as 12.8 µM; in the experiment with IGROV1 ovarian, 8.36 µM; in the experiment with UACC-257 melanoma, 3.67 µM; in the experiment with HL-60(TB) leukemia, 1090 nM.

For the origin of these results see PubChem BioAssay (NCI).
